In the Deep4Chem optical property database:
Blank lines part the entries; values can stand above or below the compound they belong to.

Experiment: photoluminescence quantum yield (fraction); solvent given as SMILES

Structure (SMILES): CC(C)(C)c1ccc2c(c1)c1cc(C(C)(C)C)ccc1n2-c1ccc(C#Cc2ccc(C=O)cc2)cc1
photoluminescence quantum yield (in ClCCl): 0.1

Structure (SMILES): N#Cc1c(-n2c3ccc(Br)cc3c3cc(Br)ccc32)c(C#N)c(-n2c3ccc(Br)cc3c3cc(Br)ccc32)c(-n2c3ccc(Br)cc3c3cc(Br)ccc32)c1-n1c2ccc(Br)cc2c2cc(Br)ccc21
photoluminescence quantum yield (in Cc1ccccc1): 0.67

Structure (SMILES): COc1ccc(N(c2ccc(/C=C(\C)c3ccccc3)cc2)c2ccc(/C=C(\C)c3ccccc3)cc2)cc1
photoluminescence quantum yield (in Cc1ccccc1): 0.48

Structure (SMILES): c1ccc(Cc2c3ccc(=[N+]4CCCCC4)cc-3oc3cc(N4CCCCC4)ccc23)cc1
photoluminescence quantum yield (in ClCCl): 0.87

Structure (SMILES): CCCCC(CC)CN1C(=O)c2cc(Oc3ccc(OC)cc3)c3c4c(Cl)cc5c6c(cc(Cl)c(c7c(Oc8ccc(OC)cc8)cc(c2c37)C1=O)c64)C(=O)N(c1c(C(C)C)cccc1C(C)C)C5=O (centres undefined)
photoluminescence quantum yield (in Cc1ccccc1): 0.13

Structure (SMILES): C(#Cc1cnc(C#Cc2ccccc2)nc1)c1ccccc1
photoluminescence quantum yield (in C1CCCCC1): 0.0009

Structure (SMILES): CC1=C2C=CC=[N+]2[B-](F)(F)n2cccc21
photoluminescence quantum yield (in CCCCCC): 0.96 | photoluminescence quantum yield (in CO): 1 | photoluminescence quantum yield (in ClCCl): 0.88

Structure (SMILES): O=C(c1ccccc1)c1cc2ccc1CCc1ccc(cc1-c1ccc(N(c3ccccc3)c3ccccc3)cc1)CC2
photoluminescence quantum yield (in c1cc(-n2c3ccccc3c3ccccc32)cc(-n2c3ccccc3c3ccccc32)c1): 0.12

Structure (SMILES): CC(C)(C)c1ccc(-c2c(-c3ccc(-n4c5ccccc5c5ccccc54)cc3)cc(-c3ccc(-n4c5ccccc5c5ccccc54)cc3)c(-c3ccc(C(C)(C)C)cc3)c2-c2ccc(C(C)(C)C)cc2)cc1
photoluminescence quantum yield (in C1CCOC1): 0.343

Structure (SMILES): CCC1=C(C)C2=C(c3c4ccccc4c(C)c4ccccc34)c3c(C)c(CC)c(C)n3[B-](F)(F)[N+]2=C1C
photoluminescence quantum yield (in CC#N): 0.054 | photoluminescence quantum yield (in CCCCCC): 0.883 | photoluminescence quantum yield (in CCO): 0.314 | photoluminescence quantum yield (in CN(C)C=O): 0.111 | photoluminescence quantum yield (in Cc1ccccc1): 0.863 | photoluminescence quantum yield (in ClCCl): 0.667

Structure (SMILES): CC(C)[Si](C#Cc1c2cc3ccccc3cc2c(C#Cc2ccccc2)c2cc3ccccc3cc12)(C(C)C)C(C)C
photoluminescence quantum yield (in ClCCl): 0.12

Structure (SMILES): N#C/C(=C\c1ccc(-c2ccncc2)cc1)c1ccc(-c2ccncc2)cc1
photoluminescence quantum yield (in ClCCl): 0.002

Structure (SMILES): CC1(C)c2ccccc2N(c2ccc(-c3cnc(C#N)nc3)cc2)c2ccccc21
photoluminescence quantum yield (in Cc1ccccc1): 0.311 | photoluminescence quantum yield (in N#Cc1ccc2c(c1)c1ccccc1n2-c1cccc(-n2c3ccccc3c3ccccc32)c1): 1

Structure (SMILES): CN1/C(=C/C=C(/C=C/c2sc3ccccc3[n+]2C)c2ccc(F)cc2)Sc2ccccc21
photoluminescence quantum yield (in CCO): 0.1 | photoluminescence quantum yield (in CO): 0.09 | photoluminescence quantum yield (in CS(C)=O): 0.14

Structure (SMILES): COc1ccc(/C=C/c2ccccc2)cc1
photoluminescence quantum yield (in C1CCCCC1): 0.022 | photoluminescence quantum yield (in CC#N): 0.007 | photoluminescence quantum yield (in CC(C)O): 0.011 | photoluminescence quantum yield (in CCCCOCCCC): 0.02 | photoluminescence quantum yield (in CCOC(C)=O): 0.016 | photoluminescence quantum yield (in CCOCC): 0.015

Structure (SMILES): Cc1ccc(-n2c(-c3cccc4cc[n-]c34)[nH+]c3c4ccccc4c4ccccc4c32)cc1
photoluminescence quantum yield (in Cc1ccccc1): 0.015

Structure (SMILES): O=S(=O)(c1ccc(-c2ccc(-c3nc4c5ccccc5c5ccccc5c4n3-c3ccccc3)cc2)cc1)c1ccc(-c2ccc(-c3nc4c5ccccc5c5ccccc5c4n3-c3ccccc3)cc2)cc1
photoluminescence quantum yield (in C1CCOC1): 0.847 | photoluminescence quantum yield (in CC#N): 0.579 | photoluminescence quantum yield (in CC(C)=O): 0.779 | photoluminescence quantum yield (in CC(C)OC(C)C): 0.81 | photoluminescence quantum yield (in CCCCCC): 0.676 | photoluminescence quantum yield (in CCCCOCCCC): 0.85 | photoluminescence quantum yield (in CCN(CC)CC): 0.102 | photoluminescence quantum yield (in CCOC(C)=O): 0.89 | photoluminescence quantum yield (in CCOCC): 0.992 | photoluminescence quantum yield (in CN(C)C=O): 0.775 | photoluminescence quantum yield (in ClC(Cl)Cl): 1 | photoluminescence quantum yield (in ClCCl): 0.824 | photoluminescence quantum yield (in c1ccc2c(c1)c1ccccc1n2-c1ccc(-c2ccc(-n3c4ccccc4c4ccccc43)cc2)cc1): 0.72

Results, then the compound that gave them:

photoluminescence quantum yield (in C1CCCCC1): 0.034 | photoluminescence quantum yield (in CC#N): 0.008 | photoluminescence quantum yield (in CCO): 0.01 | photoluminescence quantum yield (in CCOC(C)=O): 0.011 | photoluminescence quantum yield (in CO): 0.008 | photoluminescence quantum yield (in OCC(F)(F)F): 0.009
Structure (SMILES): Cc1ccc(C2=C3C=C(I)C=[N+]3[B-](F)(F)n3cccc32)cc1

photoluminescence quantum yield (in C1CCCCC1): 0.0004 | photoluminescence quantum yield (in C1COCCO1): 0.002 | photoluminescence quantum yield (in CC#N): 0.0014 | photoluminescence quantum yield (in CCO): 0.005 | photoluminescence quantum yield (in OCC(F)(F)F): 0.005
Structure (SMILES): Cc1cc2c(o1)c(Br)cc1c(C)cc(=O)oc12

photoluminescence quantum yield (in CC#N): 0.06 | photoluminescence quantum yield (in c1ccccc1): 0.084
Structure (SMILES): COc1ccc(-c2cc(-c3ccc(C)cc3)nc3c(C#N)c(N4CCCC4)nc(N)c23)cc1

photoluminescence quantum yield (in ClCCl): 0.5
Structure (SMILES): COc1ccc(-c2ccc(-c3cc(-c4ccccn4)nc(-c4ccccn4)c3)cc2)cc1

photoluminescence quantum yield (in CCO): 0.0111 | photoluminescence quantum yield (in ClCCl): 0.0197 | photoluminescence quantum yield (in O): 0.01
Structure (SMILES): N#CC(C#N)=Cc1ccc(-c2ccc(-c3nc4ccccc4s3)c(O)c2)s1

photoluminescence quantum yield (in CC#N): 0.017 | photoluminescence quantum yield (in ClCCCl): 0.024
Structure (SMILES): Cc1ccc2nc3c(=O)[nH]c(=O)[nH]c3nc2c1

photoluminescence quantum yield (in C1COCCO1): 0.95 | photoluminescence quantum yield (in CC#N): 0.75 | photoluminescence quantum yield (in CO): 0.76 | photoluminescence quantum yield (in ClCCl): 0.95
Structure (SMILES): COC(=O)c1nc2c(N)nc(N(C)C)nc2n1Cc1ccccc1

photoluminescence quantum yield (in ClCCl): 0.82
Structure (SMILES): CCN(CC)c1ccc2cc(C#N)c(=O)oc2c1

photoluminescence quantum yield (in CC#N): 0.16 | photoluminescence quantum yield (in CCCCCC): 0.18 | photoluminescence quantum yield (in CCOC(C)=O): 0.2 | photoluminescence quantum yield (in CO): 0.16 | photoluminescence quantum yield (in ClCCl): 0.27
Structure (SMILES): CCCSc1ccc2n1[B-](F)(F)[N+]1=C(SC#N)C=CC1=C2c1ccccc1

photoluminescence quantum yield (in CCO): 0.022
Structure (SMILES): CCOC(=O)c1cc(C(=O)OCC)c2cc(C)ccc2n1

photoluminescence quantum yield (in CS(C)=O): 0.013 | photoluminescence quantum yield (in O): 0.013
Structure (SMILES): CC1(C)C(/C=C/C=C/c2cc3ccc(O)cc3oc2=O)=[N+](CCCS(=O)(=O)[O-])c2ccccc21

photoluminescence quantum yield (in ClC(Cl)Cl): 0.19
Structure (SMILES): O=Cc1ccc(Oc2ccc3c4c(cccc24)C(=O)N(CCO)C3=O)cc1

photoluminescence quantum yield (in C1CCCCC1): 0.082 | photoluminescence quantum yield (in C1CCOC1): 0.13 | photoluminescence quantum yield (in CN(C)C=O): 0.44 | photoluminescence quantum yield (in CO): 0.37 | photoluminescence quantum yield (in ClC(Cl)Cl): 0.26 | photoluminescence quantum yield (in c1ccccc1): 0.2
Structure (SMILES): CC1(C)Cc2c(c3ccccc3c3nc4ccccc4nc23)O1

photoluminescence quantum yield (in CCO): 0.0424 | photoluminescence quantum yield (in ClCCl): 0.0634 | photoluminescence quantum yield (in O): 0.07
Structure (SMILES): O=Cc1ccc(-c2ccc(-c3nc4ccccc4s3)c(O)c2)s1

photoluminescence quantum yield (in CS(C)=O): 0.045
Structure (SMILES): Cc1ccc(C2C(C#N)=C(N)n3c(=O)c4ccccc4c(=O)n32)cc1 (centres undefined)

photoluminescence quantum yield (in ClC(Cl)Cl): 0.01 | photoluminescence quantum yield (in O): 0.0008
Structure (SMILES): C/C=C/C=C/C1=NC(=C\c2ccc(O)cc2)/C(=O)N1C
